In patent US11390606B2, “Pyridazinone compounds and uses thereof” (Edgewise Therapeutics, Inc., priority 2018, dated 2022) one finds IC50 data, which are given here for 31 compounds.

For the assay, the target named is T1, skeletal myofibrils (Rabbit Psoas), myosin ATPase activity.
T1 construct: Rabbit Psoas Prep 11 (0.25 mg/mL)
The experiment in a line: Skeletal Myofibril ATPase Assay. In kind it is biochemical. The conditions noted are these: skeletal myofibrils (Rabbit Psoas 0.25 mg/mL), PK/LDH-coupled NADH absorbance at 340 nm. How it is done:
Overview: Myosin ATPase activity is assessed by using a coupled reaction system, in which ADP generated by the myosin ATPase function is coupled to the disappearance of NADH through the pyruvate kinase/lactate dehydrogenase (PK-LDH) system. Myosin ATPase activity produces ADP, which is used as a substrate for PK to produce pyruvate and regenerate ATP. The pyruvate is then used as a substrate by LDH to oxidize NADH to NAD+. The rate of the reaction is monitored through the time-dependent disappearance of NADH using absorbance at 340 nm. Inhibition of ATPase activity by the assayed compounds is indicated by a reduced rate of NADH loss, relative to vehicle-treated controls, over the experimental time window. To assess the selectivity of the assayed compounds for skeletal myofibrils, the compounds are counter-screened in cardiac myofibrils.
Materials: The following stock solutions and reagents were used in the Skeletal Myofibril ATPase Assay:
Stock Solutions of pCa buffer. Combine PIPES, CaCl2, and EGTA solutions with 70 mL of water. Adjust pH to 7.0 and bring final volume to 100 mL.
Buffer A & Buffer B. Buffers were stored on ice until use.
Skeletal Myofibril ATPase Assay Procedure: BSA, ATP, NADH, PEP, and DTT solutions were thawed at room temperature, then transferred to ice. Pellet-frozen myofibrils were transferred with approximately twice the required volume into a sufficiently large tube and capped. Myofibrils were thawed by rolling in a water bath for approximately 15 min at room temperature and cooled on ice. Buffers A and B were prepared by adjusting volumes as necessary for required number of wells and stored on ice. 0.5 μL of the compounds to be assayed were added into wells. 25 μL of Buffer A was dispensed into the wells, followed by 25 μL of Buffer B. The wells were measured for absorbance at 340 nm, using a kinetic protocol in which the wells are read every 1.5-2 min for 45 min. The slope of the data was approximated by subtracting the minimum absorbance value from the maximum value for each well. This was accomplished either in the SoftMax Pro software or in a spreadsheet program such as Excel. Using GraphPad Prism 8.0, the data was normalized by assigning a value of 100% to the 1% DMSO vehicle wells. Typically, a normalized 0% value was simply assigned to a (Max−Min) value of 0. The normalized data was fit to a Four Parameter Logistic sigmoidal equation, constraining the bottom to be 0 or greater. Compounds of Table 1 to 4 were tested and results of the assay appear in Table 5 herein. A=IC50 is less than or equal to 10 μM; B=IC50 is greater than 10 μM and less than 100 μM; C=IC50 is greater than 100 μM.

Compound `O=c1ccc(-c2cnc(N3CC(OC(F)F)C3)nc2)nn1Cc1ccc(Cl)cc1` [Compound 9, 2-(4-chlorobenzyl)-6-(2-(3-(difluoromethoxy)azetidin-1-yl)pyrimidin-5-yl)pyridazin-3(2H)-one] returned an IC50 below 10 µM.

The compound `O=c1ccc(-c2ccc(OCC(F)F)cc2)nn1Cc1ccc(Cl)cc1` [Compound 102, 2-(4-chlorobenzyl)-6-(4-(2,2-difluoroethoxy)phenyl)pyridazin-3(2H)-one] had an IC50 below 10 µM.

Compound `O=c1ccc(-c2cnc(OCC(F)(F)F)nc2)nn1Cc1ccc(Cl)cc1` [Compound 5, 2-(4-chlorobenzyl)-6-(2-(2,2,2-trifluoroethoxy)pyrimidin-5-yl)pyridazin-3(2H)-one] displayed an IC50 below 10 µM.

On to `O=c1ccc(-c2ccc(Cl)cc2)nn1Cc1ccccc1` [Compound 302, 2-benzyl-6-(4-chlorophenyl)pyridazin-3(2H)-one], for which the IC50 was below 10 µM.

`O=c1ccc(-c2ccc(OCC3(F)COC3)nc2)nn1Cc1ccc(Cl)cc1` [Compound 21, 2-(4-chlorobenzyl)-6-(6-((3-fluorooxetan-3-yl)methoxy)pyridin-3-yl)pyridazin-3(2H)-one] displayed a half-inhibitory concentration (IC50) below 10 µM.

`O=c1ccc(-c2cnc(OC(F)F)nc2)nn1Cc1ccc(Cl)cc1` [Compound 10, 2-(4-chlorobenzyl)-6-(2-(difluoromethoxy)pyrimidin-5-yl)pyridazin-3(2H)-one] registered an IC50 below 10 µM.

With `Cc1ccccc1Cn1nc(-c2ccc(Cl)cc2)ccc1=O` [Compound 308, 6-(4-chlorophenyl)-2-(2-methylbenzyl)pyridazin-3(2H)-one], the IC50 was below 10 µM.

Regarding `O=c1ccc(-c2cnc(OCC(F)(F)F)nc2)nn1C1(c2ccccc2)CC1` [Compound 54, 2-(1-phenylcyclopropyl)-6-(2-(2,2,2-trifluoroethoxy)pyrimidin-5-yl)pyridazin-3(2H)-one], the IC50 is below 10 µM.

Compound `O=C1Cc2cc(-c3ccc(=O)n(Cc4ccc(Cl)cc4)n3)ccc2N1` [Compound 122, 5-(1-(4-chlorobenzyl)-6-oxo-1,6-dihydropyridazin-3-yl)indolin-2-one] yielded an IC50 above 100 µM.

With `NC(=O)c1ccc(Cn2nc(-c3ccc(OC(F)F)cc3)ccc2=O)cc1` [Compound 116, 4-((3-(4-(difluoromethoxy)phenyl)-6-oxopyridazin-1(6H)-yl)methyl)benzamide], the IC50 is above 100 µM.

Consider `CNc1ccc(-c2ccc(=O)n(Cc3ccc(Cl)cc3)n2)cc1` [Compound 123, 2-(4-chlorobenzyl)-6-(4-(methylamino)phenyl)pyridazin-3(2H)-one], for which the IC50 was below 10 µM.

`O=c1ccc(-c2ccc(F)cc2)nn1Cc1ccccc1F` [Compound 243, 2-(2-fluorobenzyl)-6-(4-fluorophenyl)pyridazin-3(2H)-one] returned an IC50 of 10 to 100 µM.

The compound `C[C@@H]1Cc2cc(-c3ccc(=O)n(Cc4ccc(Cl)cc4)n3)ccc2O1` [Compound 111, (R)-2-(4-chlorobenzyl)-6-(2-methyl-2,3-dihydrobenzofuran-5-yl)pyridazin-3(2H)-one] came in with an IC50 below 10 µM.

On to `O=c1ccc(-c2ccc(OC(F)F)cc2)nn1Cc1ccc(Cl)cc1` [Compound 103, 2-(4-chlorobenzyl)-6-(4-(difluoromethoxy)phenyl)pyridazin-3(2H)-one], for which the IC50 was below 10 µM.

Turning to `O=c1ccc(-c2cnc(OCC(F)(F)F)nc2)nn1Cc1cc(F)cc(F)c1` [Compound 43, 2-(3,5-difluorobenzyl)-6-(2-(2,2,2-trifluoroethoxy)pyrimidin-5-yl)pyridazin-3(2H)-one], the IC50 was below 10 µM.

Turning to `O=c1ccc(-c2ccc(OC(F)(F)F)cc2)nn1Cc1ccc(Cl)cc1` [Compound 105, 2-(4-chlorobenzyl)-6-(4-(trifluoromethoxy)phenyl)pyridazin-3(2H)-one], the IC50 was below 10 µM.

In the case of `O=c1ccc(-c2ccc3c(c2)CCO3)nn1Cc1ccc(Cl)cc1` [Compound 112, 2-(4-chlorobenzyl)-6-(2,3-dihydrobenzofuran-5-yl)pyridazin-3(2H)-one], the IC50 is below 10 µM.

For the compound `Cc1ccc(-c2ccc(=O)n(Cc3ccc(F)cc3)n2)cc1` [Compound 236, 2-(4-fluorobenzyl)-6-(p-tolyl)pyridazin-3(2H)-one], the IC50 was below 10 µM.

`O=c1ccc(-c2cnc(OCC(F)(F)F)nc2)nn1Cc1cccc(F)c1F` [Compound 38, 2-(2,3-difluorobenzyl)-6-(2-(2,2,2-trifluoroethoxy)pyrimidin-5-yl)pyridazin-3(2H)-one]: the IC50 was below 10 µM.

Turning to `CC1Cc2cc(-c3ccc(=O)n(Cc4ccc(Cl)cc4)n3)ccc2O1` (stereo not shown) [Compound 109, 2-(4-chlorobenzyl)-6-(2-methyl-2,3-dihydrobenzofuran-5-yl)pyridazin-3(2H)-one], the IC50 was below 10 µM.

Compound `O=c1ccc(-c2ccc(Cl)cc2)nn1Cc1cccc(Cl)c1` [Compound 307, 2-(3-chlorobenzyl)-6-(4-chlorophenyl)pyridazin-3(2H)-one] returned a half-maximal inhibitory concentration (IC50) below 10 µM.

As to `O=c1ccc(-c2ccc(Cl)cc2)nn1Cc1ccccc1F` [Compound 309, 6-(4-chlorophenyl)-2-(2-fluorobenzyl)pyridazin-3(2H)-one], the IC50 was below 10 µM.

In turn, `CN(C)c1ccc(-c2ccc(=O)n(Cc3ccc(Cl)cc3)n2)cn1` [Compound 27, 2-(4-chlorobenzyl)-6-(6-(dimethylamino)pyridin-3-yl)pyridazin-3(2H)-one] yielded an IC50 below 10 µM.

`O=c1ccc(-c2cnc(NCC(F)(F)F)nc2)nn1Cc1ccc(Cl)cc1` [Compound 6, 2-(4-chlorobenzyl)-6-(2-((2,2,2-trifluoroethyl)amino)pyrimidin-5-yl)pyridazin-3(2H)-one]: the IC50 is below 10 µM.

Turning to `O=c1ccc(-c2ccc(Br)cc2)nn1Cc1ccccc1` [Compound 239, 2-benzyl-6-(4-bromophenyl)pyridazin-3(2H)-one], the IC50 is below 10 µM.

Turning to `O=c1ccc(-c2cnc(NCC(F)F)nc2)nn1Cc1ccc(Cl)cc1` [Compound 32, 2-(4-chlorobenzyl)-6-(2-((2,2-difluoroethyl)amino)pyrimidin-5-yl)pyridazin-3(2H)-one], the IC50 is below 10 µM.

Consider `O=c1ccc(-c2ccc(Cl)cc2)nn1Cc1ccc(C(F)(F)F)cc1` [Compound 305, 6-(4-chlorophenyl)-2-(4-(trifluoromethyl)benzyl)pyridazin-3(2H)-one], for which the IC50 was above 100 µM.

In the case of `O=c1ccc(-c2cnc(OCC3COC3)nc2)nn1Cc1ccc(F)cc1F` [Compound 25, 2-(2,4-difluorobenzyl)-6-(2-(oxetan-3-ylmethoxy)pyrimidin-5-yl)pyridazin-3(2H)-one], the concentration for half-maximal inhibition (IC50) was below 10 µM.

Take `CC1(C)C(=O)Nc2ccc(-c3ccc(=O)n(Cc4ccc(Cl)cc4)n3)cc21` [Compound 121, 5-(1-(4-chlorobenzyl)-6-oxo-1,6-dihydropyridazin-3-yl)-3,3-dimethylindolin-2-one]: the 50% inhibitory concentration (IC50) is above 100 µM.

For `O=c1ccc(-c2cnc(N3CC4(C3)CC(F)(F)C4)nc2)nn1Cc1ccc(Cl)cc1` [Compound 14, 2-(4-chlorobenzyl)-6-(2-(6,6-difluoro-2-azaspiro[3.3]heptan-2-yl)pyrimidin-5-yl)pyridazin-3(2H)-one], the IC50 is below 10 µM.

Regarding `O=c1ccc(-c2cnc(OCC3(F)COC3)nc2)nn1Cc1ccc(F)cc1F` [Compound 24, 2-(2,4-difluorobenzyl)-6-(2-((3-fluorooxetan-3-yl)methoxy)pyrimidin-5-yl)pyridazin-3(2H)-one], the IC50 is below 10 µM.

The term IC50 denotes the point on the concentration scale where inhibition reaches its midpoint. Read a high IC50 as weaker potency in that assay.
